Source: patent US6337333B1, “Method of treating autoimmune disease with fludarabine-5′-monophosphate” (priority 1992, dated 2002)

Columns and labels:
[1] = system: CD20, CD20/CD5 and CD3/CD5 lymphocyte subsets; test: Flowcytometric phenotype of lymphocyte subsets in SAC + rIL-2 cultures; assay type: cell-based, human; details: for CD20/CD5 subpopulations: end of 5 and 10 day culture periods, drug dose dependent, data not shown; for effect on relative percent of CD20, CD20/CD5 and CD3/CD5 staining cells: 5 day SAC + rIL-2 culture, FIG. 4; for CD20, % Viable (% Total) / CD20/5, % Viable (% Total): 5 day culture, 1.0 μg/ml FLP + SAC/rIL-2 (50 μ/ml)
Method: Approximately 5×10^5−1×10^6 PBMC, enriched T, or B lymphocytes were cultured in 1 ml of S-10 in Falcon 10×75 mm capped polypropylene tissue culture tubes (Falcon #2063) for the appropriate times at 37° C. in a humidified 5% CO2/air atmosphere. Recombinant IL-2 (rIL-2) was used at 50 U/ml and SAC was at a final concentration of {fraction (1/60,000)}. The mitogens phytohemagglutinin (PHA-P) (Pharmacia, #27-3707-01, Uppsala, Sweden) and pokeweed mitogen (PWM, Pharmacia, #27-3702-01) were used at 5 μg/ml and 10 μg/ml, respectively.
Cells were washed once in citrate buffered saline (C-BSS) and 10^5-10^6 cells per sample were aliquoted for staining. For direct immunofluorescence, […] of either FITC- or PC-conjugated CD-specific mouse monoclonal antibody (Becton Dickinson, San Jose, Calif.) were added to cells in […] of C-BSS and incubated at RT for 30 min. The samples were then washed once in 2 ml C-BSS, resuspended in 0.5 ml C-BSS and acquired on a B/D FACScan Flowcytometer using either Simulset or Lysis II software. During analysis of data files, lymphocytes were discriminated from monocytes and dead cells on the basis of their forward light scatter (FCS) properties and high positivity with anti-CD45 and anti-CD14 (leucogate).
In FIG. 4, at the end of the culture period, the cells were washed, fixed with 1% formalin/PBS, and stained with mouse monoclonals anti-CD20 (PE), anti-CD3 (PE), and anti-CD5 (FITC). The stained samples were analyzed on a FACScan flowcytometer using LYSYS II software. Viable cells were gated and results are expressed as percent of total viable events acquired.
Experiments were conducted that sampled supernatants and cells at 5 and 10 days culture with various amounts of drug.

IgM-RF production = test: Cumulative IgM-RF production in SAC + rIL-2 cultures, EIA; assay type: cell-based, human; details: for effect on measurable IgM-RF: FIG. 7C; for accumulation of IgM-RF: 5 and 10 day SAC rIL-2 cultures, preliminary studies
Source text: In FIG. 7, peripheral blood mononuclear cells (PBMC) enriched for B lymphocytes (BC92; 35% CD19, 33% CD20, 35% CD3) were continuously cultured for 5 days in either medium alone, Staphylococcus aureus Cowan I (SAC) plus interleukin 2 (IL-2) (50 U/ml), or SAC plus IL-2 in the presence of various concentrations of FLP or 2-chlorodeoxyadenosine (2CDA). After 5 days of culture, the supernatants were harvested and serial dilutions of supernatant assayed for huIgM and huIgG by EIA. The presence of IgM rheumatoid factor (IgM-RF) was determined by EIA using the Vectastain Biotin-Streptavidin amplification system. Results are reported as O.D. 405 nm units. […] The results shown are from 1 representative experiment of 4 separate experiments conducted with 4 different sources of packed leukocytes.
In FIG. 8, peripheral blood mononuclear cells (PBMC) enriched for B lymphocytes (BC92, 35% CD19, 33% CD20, 35% CD3) were continuously cultured for 10 days in either medium alone, Staphylococcus aureus Cowan I (SAC) plus interleukin 2 (IL-2) (50 U/ml), or SAC plus IL-2 in the presence of various concentrations of FLP or 2CDA. At the end of the culture period, the supernatants were harvested and serial dilutions assayed for huIgM, huIgG, and IgM-RF by EIA. The cells were phenotyped by flowcytometry. Results are reported as O.D. 405 nm units. […] The results shown are from 1 experiment representative of 3 separate experiments conducted with 3 different sources of packed leukocytes.
In FIG. 9, peripheral blood mononuclear cells (PBMC) (BC93; 22% CD19, 20% CD20, 78% CD3) were continuously cultured for 5 days in either medium alone, Staphylococcus aureus Cowan I (SAC) plus interleukin 2 (IL-2) (50 U/ml) or 20% T cell conditioned medium (Tcm) in the presence of various concentrations of FLP. At the end of the 5 day culture period, the supernatants were harvested and serial dilutions assayed for huIgM, huIgG, and IgM-RF by EIA. The results are reported as O.D. 405 nm units. […] The results shown are from one representative experiment.
The procedure to determine amounts of IgM-RF in culture supernatants was a modification of the methodology described above. Briefly, plates were coated with 100 μl/well of a 2.4 μg/ml solution of human IgG Fc fragments (Jackson ImmunoResearch, Chrompure #009-000-008) in 0.1 M sodium carbonate, pH 9.6 overnight at 4° C. The wells were blocked with 0.1% BSA/PBS for 1 hr at RT, and then serial dilutions of culture supernatant were cultured at 100 μl/well for 18-48 hrs at RT. A Vectastain Human IgM ABC-AP kit (Vector Laboratories, #AK-5009, Burlingame, Calif.) was used to develop the plates. […] Results are reported as O.D. units at 405 nm.

`Nc1nc(Cl)nc2c1ncn2[C@H]1C[C@H](O)[C@@H](CO)O1` [2CDA, 2-chlorodeoxyadenosine] was tested, and the CD20/CD5 subpopulations [1] was “decreased”, the “effect on measurable IgM-RF” value (IgM-RF production; 1 μg/ml, 5 days) was “less effect” and the “effect on IgM-RF accumulation compared with FLP” value (IgM-RF production; 1 μg/ml, 10 days) was “characteristics similar to FLP”. For the same molecule, the “accumulation of IgM-RF” value (IgM-RF production) was “dose-related decrease”.
With `Nc1nc(F)nc2c1ncn2[C@@H]1O[C@H](COP(=O)(O)O)[C@@H](O)[C@@H]1O` [FLP, fludarabine-5′-monophosphate] the “effect on relative percent of CD20, CD20/CD5 and CD3/CD5 staining cells” value ([1]; 0.1 μg/ml) was “minimal effect”, the “effect on relative percent of CD20, CD20/CD5 and CD3/CD5 staining cells” value ([1]; 0.5 μg to 5.0 μg/ml) was “dose-dependent decrease” and the “CD20, % Viable (% Total)” value ([1]; IL-6 +) was 60%. For the same molecule, the “CD20/5, % Viable (% Total)” value ([1]; IL-6 +) was 1.9%, the “CD20, % Viable (% Total)” value ([1]; IL-6 −) was 64% and the “CD20/5, % Viable (% Total)” value ([1]; IL-6 −) was 1.8%. For the same molecule, the CD20/CD5 subpopulations [1] was “decreased”, the IgM-RF production (IgM-RF production; 0.1 μg/ml, 10 days, FIG. 8C) was 50 % of control and the “effect on measurable IgM-RF” value (IgM-RF production; 1 μg/ml, 5 days) was “reduce the measurable IgM-RF”. For the same molecule, the “level of measurable IgM-RF” value (IgM-RF production; 5 μg, 10 days, FIG. 8C) was “below the medium control levels”, the “effect on measurable IgM-RF” value (IgM-RF production; 5 μg/ml, 5 days) was “reduce the measurable IgM-RF” and the “effect on IgM-RF accumulation” value (IgM-RF production; 0.1 and 0.5 μg/ml, PBMC, 5 days, cultures containing rIL-2 or 20% T cell conditioned medium, FIG. 9C) was “reduce”. The “accumulation of IgM-RF” value (IgM-RF production) was “dose-related decrease”.
